Source: article PMC6273978, “Synthesis and Pharmacological Evaluation of Novel Pleuromutilin Derivatives with Substituted Benzimidazole Moieties” (Molecules, 2016)
Converted amounts (≈) assume the structure as drawn.

Key:
[1] = tested on: Staphylococcus aureus (S. aureus); assay: MIC testing, agar dilution method; format: cell-based; conditions: 36.5 °C, 24–48 h
Source text: (§1) The synthesized pleuromutilin derivatives 3 and 4a–l, with tiamulin fumarate used a as reference drug, were screened for their in vitro antibacterial activity against Escherichia coli (E. coli), Staphylococcus aureus (S. aureus), Methicillin-resistant Staphylococcus aureus (MRSA), Staphylococcus vitulinus (S. vitulinus), Staphylococcus warneri (S. warneri), and Staphylococcus haemolyticus (S. haemolyticus). The antibacterial activities are reported in Table 1 as the minimum inhibitory concentration (MIC) using the agar dilution method. The MICs of the 13 new pleuromutilin derivatives in vitro against E. coli ranged from 10 to 80 μg/mL; against S. aureus, MRSA, S. vitulinus, S. warneri, and S. haemolyticus ranged from 0.156 to 40 μg/mL, respectively.
(§2) The MIC for the synthesized compounds (3 and 4a–l) and tiamulin fumarate used as a reference drug were determined using the agar dilution method according to the National Committee for Clinical Laboratory Standards (NCCLS). Tested compounds were dissolved in 25%–40% DMSO to a solution with a concentration of 1280 µg/mL, whereas tiamulin fumarate was directly dissolved in 10 mL of distilled water at the same concentration as the tested compounds. All the solutions were then diluted twofold with sterile water to provide 11 dilutions (final concentration is 0.625 µg/mL). A 2 mL volume of the 2-fold serial dilution of each test compound/drug was incorporated into 18 mL of hot Muellere-Hinton agar medium. Inoculums, including five Gram (+), S. aureus, MRSA, S. vitulinus, S. warneri, S. haemolyticus, and one Gram (−), E. coli were prepared from blood slants and adjusted to approximately 10^5–10^6 CFU/mL with sterile saline (0.90% NaCl). A 10 µL amount of bacterial suspension was spotted onto Muellere-Hinton agar plates containing serial dilutions of the compounds/drug. The plates were incubated at 36.5 °C for 24–48 h. The same procedure was repeated in triplicate.

[2] = tested on: Staphylococcus vitulinus (S. vitulinus); assay: MIC testing, agar dilution method; format: cell-based; conditions: Mammaliicoccus vitulinus, 36.5 °C, 24–48 h
Source text: as §1, §2

[3] = tested on: Methicillin-resistant Staphylococcus aureus (MRSA); assay: MIC testing, agar dilution method; format: cell-based; conditions: 36.5 °C, 24–48 h
Source text: as §1, §2

[4] = tested on: Staphylococcus haemolyticus (S. haemolyticus); assay: MIC testing, agar dilution method; format: cell-based; conditions: 36.5 °C, 24–48 h
Source text: as §1, §2

[5] = tested on: Staphylococcus warneri (S. warneri); assay: MIC testing, agar dilution method; format: cell-based; conditions: 36.5 °C, 24–48 h
Source text: as §1, §2

[6] = tested on: Escherichia coli (E. coli); assay: MIC testing, agar dilution method; format: cell-based; conditions: 36.5 °C, 24–48 h
Source text: as §1, §2

S. aureus = assay: Oxford cup assay, zone of inhibition; format: cell-based; conditions: Staphylococcus aureus
Protocol: (§3) The Oxford cup assays were carried out to evaluate the antibacterial activities against the above-mentioned six bacterial strains. The zones of inhibition for two concentrations (320 and 160 μg/mL) of the synthetic compounds and tiamulin fumarate were measured. The results of Oxford cup assay correspond with that obtained by agar dilution method (MICs) as a whole.
(§4) The procedure for Oxford cup assays was the same as that previously reported. Briefly, inoculums were prepared in 0.9% saline using McFarland standard and spread uniformly on nutrient agar plates. The 320 and 160 µg/mL of all the tested compounds were added individually into the Oxford cups that were placed at equal distances above the agar surfaces. The zone of inhibition for each concentration was measured after a 24–36 h incubation at 37 °C. The same procedure was repeated in triplicate.

S. haemolyticus = assay: Oxford cup assay, zone of inhibition; format: cell-based; conditions: Staphylococcus haemolyticus
Protocol: as §3, §4

MRSA = assay: Oxford cup assay, zone of inhibition; format: cell-based; conditions: Staphylococcus aureus
Protocol: as §3, §4

S. warneri = assay: Oxford cup assay, zone of inhibition; format: cell-based; conditions: Staphylococcus warneri
Protocol: as §3, §4

E. coli = assay: Oxford cup assay, zone of inhibition; format: cell-based; conditions: Escherichia coli
Protocol: as §3, §4

S. vitulinus = assay: Oxford cup assay, zone of inhibition; format: cell-based, Staphylococcus vitulinus; conditions: Mammaliicoccus vitulinus
Protocol: as §3, §4

| MIC [1] [µg/mL] | MIC [2] [µg/mL] | MIC [3] [µg/mL] | MIC [5] [µg/mL] | MIC [6] [µg/mL] | Compound | MIC [4] [µg/mL] | zone of inhibition at 160 µg/mL (S. aureus) [mm] | zone of inhibition at 320 µg/mL (S. aureus) [mm] | zone of inhibition at 160 µg/mL (S. haemolyticus) [mm] | zone of inhibition at 320 µg/mL (S. haemolyticus) [mm] | zone of inhibition at 160 µg/mL (MRSA) [mm] | zone of inhibition at 320 µg/mL (MRSA) [mm] | zone of inhibition at 160 µg/mL (S. warneri) [mm] | zone of inhibition at 320 µg/mL (S. warneri) [mm] | zone of inhibition at 160 µg/mL (E. coli) [mm] | zone of inhibition at 320 µg/mL (E. coli) [mm] | zone of inhibition at 160 µg/mL (S. vitulinus) [mm] | zone of inhibition at 320 µg/mL (S. vitulinus) [mm] |
| --- | --- | --- | --- | --- | --- | --- | --- | --- | --- | --- | --- | --- | --- | --- | --- | --- | --- | --- |
| 40 (≈ 60.2 µM) | 40 (≈ 60.2 µM) | 40 (≈ 60.2 µM) | 40 (≈ 60.2 µM) | 40 (≈ 60.2 µM) | C=C[C@]1(C)C[C@@H](OC(=O)CSc2nc3ccc(NC(=O)c4ccccc4Cl)cc3[nH]2)[C@]2(C)[C@H](C)CC[C@]3(CCC(=O)[C@H]32)[C@@H](C)[C@@H]1O [Compound 4a, 14-O-((2-Chlorobenzamide-5-aminobenzimidazole-2-yl)thioacetyl) mutilin] | 5 (≈ 7.53 µM) | 9.02 | 12.4 | 20.4 | 24.9 | 15.9 | 20.2 | 21.6 | 22.4 | 0 | 11.3 | 13.8 | 19.2 |
| 40 (≈ 60.2 µM) | 10 (≈ 15.1 µM) | 20 (≈ 30.1 µM) | 20 (≈ 30.1 µM) | 80 (≈ 120 µM) | C=C[C@]1(C)C[C@@H](OC(=O)CSc2nc3ccc(NC(=O)c4cccc(Cl)c4)cc3[nH]2)[C@]2(C)[C@H](C)CC[C@]3(CCC(=O)[C@H]32)[C@@H](C)[C@@H]1O [Compound 4b, 14-O-((3-Chlorobenzamide-5-aminobenzimidazole-2-yl)thioacetyl) mutilin] | 20 (≈ 30.1 µM) | 12.3 | 15.8 | 20.3 | 20.4 | 17.3 | 21.7 | 16.5 | 19.5 | 10.4 | 0 | 20.5 | 23.8 |
| 40 (≈ 60.2 µM) | 40 (≈ 60.2 µM) | 40 (≈ 60.2 µM) | 40 (≈ 60.2 µM) | 40 (≈ 60.2 µM) | C=C[C@]1(C)C[C@@H](OC(=O)CSc2nc3ccc(NC(=O)c4ccc(Cl)cc4)cc3[nH]2)[C@]2(C)[C@H](C)CC[C@]3(CCC(=O)[C@H]32)[C@@H](C)[C@@H]1O [Compound 4c, 14-O-((4-Chlorobenzamide-5-aminobenzimidazole-2-yl)thioacetyl) mutilin] | 40 (≈ 60.2 µM) | 14.3 | 16.5 | 16.9 | 20.9 | 14.6 | 15.5 | 19.2 | 22.2 | 17.2 | 17.7 | 20.5 | 21.8 |
| 10 (≈ 15.5 µM) | 40 (≈ 62.1 µM) | 40 (≈ 62.1 µM) | 40 (≈ 62.1 µM) | 80 (≈ 124 µM) | C=C[C@]1(C)C[C@@H](OC(=O)CSc2nc3ccc(NC(=O)c4ccccc4C)cc3[nH]2)[C@]2(C)[C@H](C)CC[C@]3(CCC(=O)[C@H]32)[C@@H](C)[C@@H]1O [Compound 4d, 14-O-((2-Methylbenzamide-5-aminobenzimidazole-2-yl)thioacetyl) mutilin] | 40 (≈ 62.1 µM) | 14.7 | 17.8 | 17.4 | 18.4 | 16.3 | 19.7 | 20.6 | 22.3 | 0 | 0 | 18.2 | 19.1 |
| 40 (≈ 62.1 µM) | 40 (≈ 62.1 µM) | 40 (≈ 62.1 µM) | 40 (≈ 62.1 µM) | 80 (≈ 124 µM) | C=C[C@]1(C)C[C@@H](OC(=O)CSc2nc3ccc(NC(=O)c4cccc(C)c4)cc3[nH]2)[C@]2(C)[C@H](C)CC[C@]3(CCC(=O)[C@H]32)[C@@H](C)[C@@H]1O [Compound 4e, 14-O-((3-Methylbenzamide-5-aminobenzimidazole-2-yl)thioacetyl) mutilin] | 40 (≈ 62.1 µM) | 17.9 | 19.4 | 18.3 | 20.8 | 25.6 | 27.8 | 20.8 | 21.5 | 0 | 0 | 18.1 | 20.3 |
| 40 (≈ 62.1 µM) | 40 (≈ 62.1 µM) | 40 (≈ 62.1 µM) | 20 (≈ 31.1 µM) | 80 (≈ 124 µM) | C=C[C@]1(C)C[C@@H](OC(=O)CSc2nc3ccc(NC(=O)c4ccc(C)cc4)cc3[nH]2)[C@]2(C)[C@H](C)CC[C@]3(CCC(=O)[C@H]32)[C@@H](C)[C@@H]1O [Compound 4f, 14-O-((4-Methylbenzamide-5-aminobenzimidazole-2-yl)thioacetyl) mutilin] | 40 (≈ 62.1 µM) | 16.7 | 17.8 | 16.2 | 20.7 | 14.1 | 17.3 | 22.9 | 22.9 | 0 | 8.64 | 14 | 15.1 |
| 40 (≈ 60.6 µM) | 40 (≈ 60.6 µM) | 40 (≈ 60.6 µM) | 40 (≈ 60.6 µM) | 80 (≈ 121 µM) | C=C[C@]1(C)C[C@@H](OC(=O)CSc2nc3ccc(NC(=O)c4ccccc4OC)cc3[nH]2)[C@]2(C)[C@H](C)CC[C@]3(CCC(=O)[C@H]32)[C@@H](C)[C@@H]1O [Compound 4g, 14-O-((2-Methoxybenzamide-5-aminobenzimidazole-2-yl)thioacetyl) mutilin] | 10 (≈ 15.2 µM) | 13.7 | 18.3 | 24.3 | 25.6 | 19.1 | 21.5 | 18.5 | 20.1 | 0 | 9.38 | 16.2 | 18 |
| 40 (≈ 60.6 µM) | 40 (≈ 60.6 µM) | 40 (≈ 60.6 µM) | 40 (≈ 60.6 µM) | 40 (≈ 60.6 µM) | C=C[C@]1(C)C[C@@H](OC(=O)CSc2nc3ccc(NC(=O)c4cccc(OC)c4)cc3[nH]2)[C@]2(C)[C@H](C)CC[C@]3(CCC(=O)[C@H]32)[C@@H](C)[C@@H]1O [Compound 4h, 14-O-((3-Methoxybenzamide-5-aminobenzimidazole-2-yl)thioacetyl) mutilin] | 10 (≈ 15.2 µM) | 15.9 | 18.7 | 25.4 | 28.4 | 16.3 | 19.7 | 17.9 | 19.8 | 15.3 | 18 | 19.8 | 21.7 |
